Experiments:
Format in all cases: in vivo
corn crop [1] = assay: % phytotoxicity in corn crop after spraying tank mix; settings: for Phytotoxicity (%) in corn crop: flucarbazone 30 g ai/ha, safener cyprosulfamid 66 / isoxadifen 38 / mefenpyr 30 g ai/ha
Description: Treatment: The present invention has employed a tank mix combination of Flucarbazone and Cyprosulfamid as the safener to evaluate its percentage phytotoxicity and its efficacy in the control of weeds.
The tank mix combination of Flucarbazone and Cyprosulfamid as the safener was formulated and the combination was sprayed onto corn crop and the results on the phytotoxicity in corn were determined. These observations relating to % phytotoxicity were made during a time interval of over a month. The duration at which the % phytotoxicity were determined at time intervals as follows: 3 DAA (3 days after application), 5 DAA (5 days after application), 7 DAA (7 days after application), 14 DAA (14 days after application), 21 DAA (21 days after application); 28 DAA (28 days after application); 35 DAA (35 days after application); 42DAA (42 days after application).
• (i) Treatment: The present invention has employed a tank mix of Flucarbazone and Isoxadifen as the safener to evaluate its percentage phytotoxicity in corn crop. • (ii) % Phytotoxicity: This % phytotoxicity was observed by the present inventors to be as high as 48% at 14 DAA in crops treated with Flucarbazone and Isoxadifen.
B) Flucarbazone with Mefenpyr as the Safener • (i) Treatment: The present invention has employed a tank mix combination of Flucarbazone and […] as the safener to evaluate its percentage phytotoxicity in corn crop.

redroot pigweed = assay: % efficacy of weed control against redroot pigweed in corn crop; settings: for % Efficacy for control of weeds: redroot pigweed in corn crop, flucarbazone 30 g ai/ha, cyprosulfamid 66 g ai/ha
Description: The tank mix combination of Flucarbazone and Cyprosulfamid as the safener was formulated and the combination was sprayed onto corn crop and the results on the efficacy in weed control were determined.

corn crop [2] = assay: Height of corn plants after treatment, greenhouse; settings: for Crop height (cm) at 14 DAA: safener 90 g ai/ha
Description: (§1) The combination of flucarbazone with safeners selected from cyprosulfamid and isoxadifen were evaluated in terms of the increase or decrease in height of the treated corn crop (cm) and % phytotoxicity. The experimental evaluations were conducted under greenhouse conditions with 4 repetitions, using a spray volume of […]. The different corn varieties tested were SYN8A98 TLTG and XB 8010.
The observations for determining corn height were made at 14 DAA (days after application) of the herbicide. The treatment employed and the corresponding observations are detailed in the table 8 (i) & (ii) below: […]

corn crop [3] = assay: % phytotoxicity on corn varieties, greenhouse; settings: flucarbazone 45 g ai/ha alone
Description: as §1
The observations for determining corn height were made at 7 DAA (days after application), 14 DAA and 21 DAA, of the herbicide. The treatment employed and the corresponding observations are detailed in the table 9 (i) & (ii) below: […]

COc1nn(C(=O)NS(=O)(=O)c2ccccc2OC(F)(F)F)c(=O)n1C [flucarbazone, Flucarbazone]
Phytotoxicity (%) in corn crop (corn crop [1]; 3DAA & 5DAA, sub-column 1 of 3 (unlabelled)): 0%
Phytotoxicity (%) in corn crop (corn crop [1]; 3DAA & 5DAA, sub-column 3 of 3 (unlabelled)): 0%
Phytotoxicity (%) in corn crop (corn crop [1]; 3DAA & 5DAA): 0%
Phytotoxicity (%) in corn crop (corn crop [1]; 7DAA, sub-column 1 of 3 (unlabelled)): 28.8%
Phytotoxicity (%) in corn crop (corn crop [1]; 7DAA, sub-column 3 of 3 (unlabelled)): 28.8%
Phytotoxicity (%) in corn crop (corn crop [1]; 7DAA): 28.8%
Phytotoxicity (%) in corn crop (corn crop [1]; 14 DAA, sub-column 1 of 3 (unlabelled)): 51.3%
Phytotoxicity (%) in corn crop (corn crop [1]; 14 DAA, sub-column 3 of 3 (unlabelled)): 50%
Phytotoxicity (%) in corn crop (corn crop [1]; 14 DAA): 53.8%
Phytotoxicity (%) in corn crop (corn crop [1]; 21DAA, sub-column 1 of 3 (unlabelled)): 50%
Phytotoxicity (%) in corn crop (corn crop [1]; 21DAA, sub-column 3 of 3 (unlabelled)): 46.3%
Phytotoxicity (%) in corn crop (corn crop [1]; 21DAA): 51.3%
Phytotoxicity (%) in corn crop (corn crop [1]; 28DAA, sub-column 1 of 3 (unlabelled)): 47.5%
Phytotoxicity (%) in corn crop (corn crop [1]; 28DAA, sub-column 3 of 3 (unlabelled)): 39.8%
Phytotoxicity (%) in corn crop (corn crop [1]; 28DAA): 56.3%
Phytotoxicity (%) in corn crop (corn crop [1]; 35DAA, sub-column 1 of 3 (unlabelled)): 44.9%
Phytotoxicity (%) in corn crop (corn crop [1]; 35DAA, sub-column 3 of 3 (unlabelled)): 39.9%
Phytotoxicity (%) in corn crop (corn crop [1]; 35DAA): 53.8%
Phytotoxicity (%) in corn crop (corn crop [1]; 42DAA, sub-column 1 of 3 (unlabelled)): 42.4%
Phytotoxicity (%) in corn crop (corn crop [1]; 42DAA, sub-column 3 of 3 (unlabelled)): 38.7%
Phytotoxicity (%) in corn crop (corn crop [1]; 42DAA): 48.7%
% phytotoxicity levels in corn crop (corn crop [1]; at 14 DAA, highest level stated in text): up to 50%
% phytotoxicity in corn crop (corn crop [1]; over a period of one month after application): significant damage
% Efficacy for control of weeds (redroot pigweed; 7 DAA): 22.5%
% Efficacy for control of weeds (redroot pigweed; 14 DAA): 42.5%
% Efficacy for control of weeds (redroot pigweed; 21 DAA): 45%
% Efficacy for control of weeds (redroot pigweed; 28 DAA): 48.8%
% Efficacy for control of weeds (redroot pigweed; 35 DAA): 48.8%
% Efficacy for control of weeds (redroot pigweed; 42 DAA): 48.8%
% efficacy control of redroot pigweed (redroot pigweed; over a duration of one month, corn crop): reduced % efficacy
Height of the corn plants (corn crop [2]; 14 DAA, compared with untreated corn): reduction in height
Crop height (cm) at 14 DAA (corn crop [2]; corn variety SYN8A98 TLTG, flucarbazone 30 g ai/ha): 14 cm
Crop height (cm) at 14 DAA (corn crop [2]; corn variety XB 8010, flucarbazone 30 g ai/ha): 11 cm
% phytotoxocity of corn crop variety P4285VYHR (corn crop [3]; 7DAA): 26 ab %
% phytotoxocity of corn crop variety SYN8A98 TLTG (corn crop [3]; 7DAA): 19 cd %
% phytotoxocity of corn crop variety XB 8010 (corn crop [3]; 7DAA): 28 a %
% phytotoxocity of corn crop variety P4285VYHR (corn crop [3]; 14 DAA): 34 b %
% phytotoxocity of corn crop variety SYN8A98 TLTG (corn crop [3]; 14 DAA): 47 ab %
% phytotoxocity of corn crop variety XB 8010 (corn crop [3]; 14 DAA): 52 ab %
% phytotoxocity of corn crop variety P4285VYHR (corn crop [3]; 21 DAA): 32 b %
% phytotoxocity of corn crop variety SYN8A98 TLTG (corn crop [3]; 21 DAA): 48 bc %
% phytotoxocity of corn crop variety XB 8010 (corn crop [3]; 21 DAA): 51 ab %

Reference: patent publication US20240324590A1, “COMBINATIONS OF TRIAZOLINONE HERBICIDES WITH SAFENERS” (UPL CORPORATION LIMITED, priority 2021, published 2024)
